Source: paper PMC12040169 (PLOS Biology, 2025)

assay: in vitro; details: human, hela cells, % viability

Row | SMILES | viability at 28.5 h, 10 µM [%]
1 | COc1ccc(-c2nc(-c3ccc(C(=O)N4CCOCC4)cc3)cnc2N)cc1 [CBK116509] | 108
2 | O=C(c1cc(-c2ccc(Cl)cc2)[nH]n1)N1CCNCC1 [CBK116548] | 99.5
3 | O=C(NCc1ccccn1)c1cc(-c2ccc(Cl)cc2)[nH]n1 [CBK116549] | 99.5
4 | CN1CCN(NC(=O)c2cc(-c3ccc(Cl)cc3)[nH]n2)CC1 [CBK116553] | 90.8
5 | O=C(NCc1ccccn1)c1cc(-c2ccc(Cl)cc2)on1 [CBK116558] | 83.8
6 | O=C(NCc1ccncc1)c1cc(-c2ccc(Cl)cc2)on1 [CBK116559] | 85.7
7 | CN(C)CC(C)(C)CNC(=O)c1cc(-c2ccc(Cl)cc2)on1 [CBK116561] | 101
8 | CN(C)CCCNC(=O)c1cc(-c2ccc(Cl)cc2)[nH]n1 [CBK116564T] | 98.5
9 | FC(F)(F)c1ccnc(OCc2ccc(Cl)c(Cl)c2)c1 [CBK116623] | 89.2
10 | FC(F)(F)c1ccnc(OCCc2c[nH]c3ccccc23)n1 [CBK116625] | 80.2
11 | CN(C)CCNC(=O)c1cc(-c2ccc(Cl)cc2)on1 [CBK116711T] | 89.7
12 | COc1cc2cc3c(N)c(C(=O)N4CCCc5ccccc54)sc3nc2cc1OC [CBK117298] | 102
13 | O=C(Nc1ccccc1Cl)N1CCN(c2ccc(F)cc2)CC1 [CBK117849] | 95.7
14 | COc1c(Br)cc(Br)cc1/C=C1/SC(=N)NC1=O [CBK119298] | 94.4
15 | O=C(Nc1c(F)cccc1F)N(Cc1ccc2ccccc2c1)CC1CCNCC1 [CBK119480] | 100
16 | COc1cc2cc3c(N)c(C(=O)NCc4cccs4)sc3nc2cc1OC [CBK120215] | 92
17 | Fc1ccc(CN2C3CCCC2CC(NC(=S)NC2CCCCC2)C3)cc1 (stereo not drawn) [CBK121172] | 90
18 | Cc1cccc(C)c1NC(=O)Cn1nnc(-c2ccc(CN3CCC(C)CC3)cc2)n1 [CBK121194] | 87.2
19 | CCOc1ccc(C(=O)NC2CC3CCC(C2)N3Cc2ccc(OC)cc2)cc1 (stereo not drawn) [CBK121398] | 109
20 | O=C(c1ccc(F)cc1)N1C2CCC1CC(O)(c1ccccc1F)C2 (stereo not drawn) [CBK121719] | 102
21 | CCCCC1CCC(C(=O)O)CC1 (stereo not drawn) [CBK122493] | 82.4
22 | Nc1ncc(-c2ccc(OC(F)(F)F)cc2)nc1-c1ccc(O)cc1 [CBK122506] | 95.8

Row | SMILES | viability at 28.5 h, 10 µM [%]
23 | Cc1ccc(S(=O)(=O)N2CCOCC2)cc1-c1cnc(N)c(-c2ccc(O)cc2)n1 [CBK122519] | 98.7
24 | CCCCSc1sc(C(=O)O)c(-c2ccc(Cl)cc2)c1C#N [CBK122551] | 94.1
25 | CC(C)(C)OC(=O)N1CCC(Sc2ccc(-c3ccco3)cc2)CC1 [CBK122552] | 85.6
26 | COc1cc(Nc2cncc(-c3ccc(O)cc3)n2)c(Cl)cc1C(=O)NCCCN(C)C [CBK122651] | 81.1
27 | CCN(CC)CCNC(=O)c1ccc(Nc2cncc(-c3ccc(O)cc3)n2)c(OC)c1 [CBK122659] | 82.2
28 | COc1cc(C(=O)NCCN2CCCC2)ccc1Nc1cncc(-c2ccc(O)cc2)n1 [CBK122661] | 96
29 | O=C(NCCN1CCCC1)c1ccc(Nc2cncc(-c3ccc(O)cc3)n2)c(Cl)c1 [CBK122666] | 85.4
30 | CN(C)CCCNC(=O)c1cccc(Nc2cncc(-c3ccc(O)cc3)n2)c1 [CBK122669] | 87.7
31 | CCC1(CC)OC(N[C@@H](C)c2ccccc2C(F)(F)F)=NC1=O [CBK122691] | 91.2
32 | CCN1CC2(CCN(CCOc3ccccc3)CC2)c2ccccc21 [CBK122705] | 100
33 | COc1ccc2[nH]cc(CCNC(=O)c3cncnc3)c2c1 [CBK122720] | 87.1
34 | COc1ccc2[nH]cc(CC(=O)Nc3cc(C)nc4ccccc34)c2c1 [CBK122732] | 88.8
35 | Cc1cc(NC(=O)c2cncnc2)c2ccccc2n1 [CBK122734] | 103
36 | O=C(Nc1ccc2cccc(O)c2n1)c1cc[nH]c1 [CBK122743] | 94.9
37 | O=C1CN(c2cccc(C(F)(F)F)c2)C(=O)N1c1ccc(Cl)cc1 [CBK122769] | 108
38 | O=c1[nH]n(-c2ccccc2)c(=O)n1Cc1ccccc1F [CBK122770] | 95
39 | COc1cccc(Cn2c(=O)[nH]n(-c3ccccc3)c2=O)c1 [CBK122771] | 97.7
40 | C=CCn1oc(=O)n(-c2ccc(OC)cc2)c1=O [CBK122773] | 89.4
41 | Cc1cc(NCc2ccc(C(C)C)cc2)c2ccccc2n1 [CBK122786] | 91.7
42 | Cc1ccc(S(=O)(=O)N2CCOCC2)cc1-c1cncc(-c2ccc(O)cc2)n1 [CBK123789] | 103
43 | O=C(c1ccc(-c2cncc(-c3ccc(O)cc3)n2)cc1Cl)N1CCOCC1 [CBK123790] | 94
44 | Oc1ccc(-c2cncc(-c3ccc(F)cc3)n2)cc1 [CBK123794] | 93.7

Row | SMILES | viability at 28.5 h, 10 µM [%]
45 | Nc1ncc(-c2ccc(CN3CCOCC3)cc2)nc1-c1ccc(O)cc1 [CBK123798] | 93.9
46 | COC(=O)/C=C/c1cccc(-c2cnc(N)c(-c3ccc(O)cc3)n2)c1 [CBK125689] | 83.7
47 | CN1CCN(C(=O)c2ccc(Cl)cc2)CC1 [CBK126096] | 104
48 | c1ccc(CC2CCN(Cc3cccnc3)CC2)cc1 [CBK126381] | 95.9
49 | C(=C\c1ccccc1)/CN1CCC(Cc2ccccc2)CC1 [CBK126384] | 119
50 | O=c1cc(CN2CCC(Cc3ccccc3)CC2)[nH]c(=O)[nH]1 [CBK126388] | 104
51 | COc1cc2c(cc1OC)CN(Cc1nc3ccccc3[nH]1)CC2 [CBK126390] | 91
52 | COc1cc2c(cc1OC)CN(Cc1cc(=O)[nH]c(=O)[nH]1)CC2 [CBK126393] | 103
53 | O=c1cc(CN2CCc3ccccc3C2)[nH]c(=O)[nH]1 [CBK126401] | 94
54 | COc1ccc(Cl)cc1N1CCN(Cc2ccc(OC(F)(F)F)cc2)CC1 [CBK126405] | 104
55 | COc1ccc(Cl)cc1N1CCN(Cc2cc(OC)c(OC)c(OC)c2)CC1 [CBK126406] | 43.3
56 | COc1ccc(Cl)cc1N1CCN(Cc2ccc(C(C)C)cc2)CC1 [CBK126407] | 97.6
57 | COc1ccc(Cl)cc1N1CCN(Cc2ccc3ccccc3c2)CC1 [CBK126414] | 116
58 | COc1ccc(Cl)cc1N1CCN(C/C=C/c2ccccc2)CC1 [CBK126415] | 90.3
59 | FC(F)(F)c1cccc(CN2CCN(CCc3ccccc3)CC2)c1 [CBK126421] | 99.7
60 | Fc1cccc(F)c1CN1CCN(CCc2ccccc2)CC1 [CBK126422] | 89.9
61 | Cc1cc(CN2CCN(CCc3ccccc3)CC2)no1 [CBK126426] | 85.8
62 | NC(=O)CN1CCN(CCc2ccccc2)CC1 [CBK126429] | 88.4
63 | O=C1NC(=O)C(CCCCN2CCC(Cc3ccccc3)CC2)N1 (stereo not drawn) [CBK126435] | 91.8
64 | Cc1nc(CN2CCC(Cc3ccccc3)CC2)cs1 [CBK126438] | 95.7
65 | COc1cc2c(cc1OC)CN(Cc1csc(C)n1)CC2 [CBK126443] | 93.4

same assay, conditions: human, hela cells, % viability, bulk resorufin, single well

Row | SMILES | viability at 28.5 h, 10 µM [%]
66 | CC(=O)Nc1ccc(-c2ccc3c(c2)COC2(CCN(C(=O)Cc4ccc(F)cc4F)CC2)O3)cc1 [CBK122474] | 102
